Where two headings read alike, the source gives them in different places.
Tests used:
[1] = tested on: common lambsquarters (CHEAL); test: Test 3 field trial, emerged weeds before corn planting; type: in vivo, Chenopodium album; settings: 68 DAA; Cpd 2 100, glyphosate 1540, paraquat 1150 g a.i./ha, alone or combined
Source text: (§1) Corn seeds (hybrid ‘Pioneer 33J56’) were planted in early spring season, 3.8 cm deep in a silt loam soil having 2.4% organic matter and a pH of 6. Plots were 6.1 m long by 2.7 m wide with rows spaced 91.4 cm apart. The field was managed using no-till practices. […] Compound 2 and paraquat treatments, alone and in combination, also included a surfactant. Glyphosate, alone and with Compound 2, included ammonium sulfate in the treatment mixture. […] The effects on the weeds in the treated plots and untreated control plots were recorded 30, 42, 46 and 68 days after application. Most of the weed species could not be evaluated at every timing. Corn response was not evaluated because the growth was highly variable depending on the efficacy of the weed control treatments. […] Results are the means of the three replicates.

[2] = tested on: red deadnettle (LAMPU); test: as above; type: in vivo, Lamium purpureum; settings: Cpd 2 100, glyphosate 1540, paraquat 1150 g a.i./ha, alone or combined
Source text: as §1

[3] = tested on: Virginia pepperweed (LEPVI); test: as above; type: in vivo, Lepidium virginicum; settings: Cpd 2 100, glyphosate 1540, paraquat 1150 g a.i./ha, alone or combined
Source text: as §1

[4] = tested on: curly dock (RUMCR); test: as above; type: in vivo, Rumex crispus; settings: Cpd 2 100, glyphosate 1540, paraquat 1150 g a.i./ha, alone or combined
Source text: as §1

[5] = tested on: giant foxtail (SETFA); test: as above; type: in vivo, Setaria faberi; settings: 68 DAA; Cpd 2 100, glyphosate 1540, paraquat 1150 g a.i./ha, alone or combined
Source text: as §1

[6] = tested on: common chickweed (STEME); test: as above; type: in vivo, Stellaria media; settings: Cpd 2 100, glyphosate 1540, paraquat 1150 g a.i./ha, alone or combined
Source text: as §1

[7] = tested on: corn (ZEAMD); test: Test 9 field trial, emerged weeds before corn planting; type: in vivo, Zea mays ssp. indentata; settings: 57 DAA; g a.i./ha: Cpd 2 100, Glyphosate 1540, Paraquat 1150
Description: (§2) Corn seeds (hybrid ‘Pioneer 34M91 RR’) were planted in mid spring season, about 3.8 cm deep in a silty clay loam soil having a pH of 6.7. Plots were 9.1 m long by 3.0 m. The field was managed using no-till practices. […] Compound 2 and paraquat treatments, alone and in combination, also included a surfactant. Glyphosate, alone and with Compound 2, included ammonium sulfate in the treatment mixture. […] The effects on the weeds in the treated plots and untreated control plots were recorded 7, 14, 23, 30 and 57 days after application. Most of the weed species could not be evaluated at every timing. Corn response was only evaluated 57 days after application. […] Results are the means of the three replicates.

[8] = tested on: giant ragweed (AMBTR); test: as above; type: in vivo, Ambrosia trifida; settings: g a.i./ha: Cpd 2 100, Glyphosate 1540, Paraquat 1150
Description: as §2

[9] = tested on: shepherd's purse (CAPBP); test: as above; type: in vivo, Capsella bursa-pastoris; settings: g a.i./ha: Cpd 2 100, Glyphosate 1540, Paraquat 1150
Description: as §2

[10] = tested on: common lambsquarters (CHEAL); test: as above; type: in vivo, Chenopodium album; settings: 57 DAA; g a.i./ha: Cpd 2 100, Glyphosate 1540, Paraquat 1150
Description: as §2

[11] = tested on: Canada horseweed (ERICA); test: as above; type: in vivo, Erigeron canadensis; settings: g a.i./ha: Cpd 2 100, Glyphosate 1540, Paraquat 1150
Description: as §2

[12] = tested on: bushy wallflower (ERYRE); test: as above; type: in vivo, Erysimum repandum; settings: g a.i./ha: Cpd 2 100, Glyphosate 1540, Paraquat 1150
Description: as §2

[13] = tested on: prickly lettuce (LACSE); test: as above; type: in vivo, Lactuca serriola; settings: g a.i./ha: Cpd 2 100, Glyphosate 1540, Paraquat 1150
Description: as §2

[14] = tested on: henbit deadnettle (LAMAM); test: as above; type: in vivo, Lamium amplexicaule; settings: g a.i./ha: Cpd 2 100, Glyphosate 1540, Paraquat 1150
Description: as §2

[15] = tested on: red deadnettle (LAMPU); test: as above; type: in vivo, Lamium purpureum; settings: g a.i./ha: Cpd 2 100, Glyphosate 1540, Paraquat 1150
Description: as §2

[16] = tested on: smallflower buttercup (RANAB); test: as above; type: in vivo, Ranunculus abortivus; settings: g a.i./ha: Cpd 2 100, Glyphosate 1540, Paraquat 1150
Description: as §2

[17] = tested on: common chickweed (STEME); test: as above; type: in vivo, Stellaria media; settings: g a.i./ha: Cpd 2 100, Glyphosate 1540, Paraquat 1150
Description: as §2

[18] = tested on: common dandelion (TAROF); test: as above; type: in vivo, Taraxacum officinale; settings: g a.i./ha: Cpd 2 100, Glyphosate 1540, Paraquat 1150
Description: as §2

[19] = tested on: mixed hardwoods (MXDSP); test: Test 13 field trial, postemergence, brush weeds; type: in vivo, Nyssa sylvatica, Acer rubrum, Liquidambar styraciflua; settings: 56 DAA; g a.i./ha: Cpd 2 250; Fosamine-ammonium 6700
Source text: (§3) Plots were established in non-crop land and were 6.1 m long by 3.0 m wide. […] Treatments were applied postemergence to the brush weeds using a backpack sprayer delivering a spray volume of 468 L/ha using a pressure of 241 kPa. […] All treatments also included a surfactant. […] Results are the means of the three replicates.

[20] = tested on: oak species (QUESS); test: Test 13 field trial, postemergence, brush weeds; type: in vivo, Quercus L. spp.; settings: 56 DAA; g a.i./ha: Cpd 2 250; Fosamine-ammonium 6700
Source text: as §3

[21] = tested on: corn (ZEAMD); parameters: species or system Zea mays ssp. indentata; settings: in vivo
Description: (§4) A greenhouse test was conducted to evaluate the effects of Compounds 1 and 2, applied preemergence, on the plant species corn (ZEAMD, Zea mays ssp. indentata) and wheat (TRZAW, Triticum aestivum L.) grown from seed treated with and without naphthalic anhydride. Naphthalic anhydride was applied at a rate of 1% wt/wt basis to corn and wheat seed. Seed treatments were made as follows for evaluations of the chemical materials employed. One-hundred grams of each crop seed were placed in a separate self-closing plastic bag to which 1 gram of the chemical material was added. The bag containing the seed was tightly closed and gently agitated thereby allowing the seed to slowly come in contact with the chemical material to achieve maximal distribution on the seed surface, arriving at a uniform coverage. Treatment rate comparisons between spray application and seed treatment materials were made on the calculated area rate of naphthalic anhydride in grams active ingredient per hectare for a given crop. These rates were calculated based on a typical seeding rate per hectare used for agronomic production of a given crop. For wheat, a typical average seeding rate is 200 wheat seeds per square meter which weigh 6.8 g. For corn, a typical average seeding rate is 7.5 corn seeds per square meter which weigh 2.0 g. […] Corn treatments were replicated three times. Wheat treatments were replicated two times. […]

[22] = tested on: wheat (TRZAW); parameters: species or system Triticum aestivum; settings: in vivo
Description: as §4

## C[n+]1ccc(-c2cc[n+](C)cc2)cc1 [Paraquat]
[1]
  CHEAL Obs: 0%
[2]; 30 DAA
  LAMPU Obs: 100%
[2]; 42 DAA
  LAMPU Obs: 98%
[2]; 46 DAA
  LAMPU Obs: 100%
[3]; 30 DAA
  LEPVI Obs: 100%
[3]; 42 DAA
  LEPVI Obs: 96%
[3]; 46 DAA
  LEPVI Obs: 100%
[4]; 30 DAA
  RUMCR Obs: 58%
[4]; 42 DAA
  RUMCR Obs: 58%
[4]; 46 DAA
  RUMCR Obs: 13%
[4]; 68 DAA
  RUMCR Obs: 15%
[5]
  SETFA Obs: 0%
[6]; 30 DAA
  STEME Obs: 96%
[6]; 42 DAA
  STEME Obs: 97%
[6]; 46 DAA
  STEME Obs: 88%
[7]
  ZEAMD Obs: 0%
[8]; 7 DAA
  AMBTR Obs: 100%
[8]; 14 DAA
  AMBTR Obs: 100%
[8]; 57 DAA
  AMBTR Obs: 70%
[9]; 7 DAA
  CAPBP Obs: 89%
[9]; 14 DAA
  CAPBP Obs: 85%
[9]; 23 DAA
  CAPBP Obs: 77%
[9]; 30 DAA
  CAPBP Obs: 72%
[9]; 57 DAA
  CAPBP Obs: 93%
[10]
  CHEAL Obs: 0%
[11]; 7 DAA
  ERICA Obs: 95%
[11]; 14 DAA
  ERICA Obs: 96%
[11]; 23 DAA
  ERICA Obs: 99%
[11]; 30 DAA
  ERICA Obs: 100%
[11]; 57 DAA
  ERICA Obs: 81%
[12]; 7 DAA
  ERYRE Obs: 98%
[12]; 14 DAA
  ERYRE Obs: 94%
[12]; 23 DAA
  ERYRE Obs: 98%
[12]; 30 DAA
  ERYRE Obs: 100%
[12]; 57 DAA
  ERYRE Obs: 80%
[13]; 7 DAA
  LACSE Obs: 97%
[13]; 14 DAA
  LACSE Obs: 95%
[13]; 23 DAA
  LACSE Obs: 100%
[13]; 30 DAA
  LACSE Obs: 100%
[13]; 57 DAA
  LACSE Obs: 100%
[14]; 7 DAA
  LAMAM Obs: 93%
[14]; 14 DAA
  LAMAM Obs: 84%
[14]; 23 DAA
  LAMAM Obs: 85%
[14]; 30 DAA
  LAMAM Obs: 73%
[14]; 57 DAA
  LAMAM Obs: 81%
[15]; 7 DAA
  LAMPU Obs: 79%
[15]; 14 DAA
  LAMPU Obs: 80%
[15]; 23 DAA
  LAMPU Obs: 81%
[15]; 30 DAA
  LAMPU Obs: 70%
[16]; 7 DAA
  RANAB Obs: 98%
[16]; 14 DAA
  RANAB Obs: 100%
[16]; 23 DAA
  RANAB Obs: 100%
[16]; 30 DAA
  RANAB Obs: 100%
[17]; 7 DAA
  STEME Obs: 99%
[17]; 14 DAA
  STEME Obs: 99%
[17]; 23 DAA
  STEME Obs: 100%
[17]; 30 DAA
  STEME Obs: 100%
[17]; 57 DAA
  STEME Obs: 98%
[18]; 7 DAA
  TAROF Obs: 79%
[18]; 14 DAA
  TAROF Obs: 69%
[18]; 23 DAA
  TAROF Obs: 61%
[18]; 30 DAA
  TAROF Obs: 33%
[18]; 57 DAA
  TAROF Obs: 0%

## CCOP(=O)(O)C(N)=O [Fosamine-ammonium, fosamine-ammonium, reference compound]
[19]
  MXDSP Obs: 47
[20]
  QUESS Obs: 33

## O=C1OC(=O)c2cccc3cccc1c23 [Naphthalic anhydride]
[21]
  ZEAMD Obs: 0
[22]
  TRZAW Obs: 0

— patent publication US20100285959A1, “HERBICIDAL MIXTURES” (priority 2006, published 2010)
